These results are taken from publication PMC8470367, “Antihypertensive and Probiotic Effects of Hidakakombu (Saccharina angustata) Fermented by Lacticaseibacillus casei 001” (Foods, 2021).

In brackets after ≈: the same amount, converted by molar mass.

The experiment concerns the target T1, angiotensin-converting enzyme (ACE).
T1 construct: enzyme of the commercial ACE-kit WST (Dojin / Dojindo)
Briefly: ACE-kit WST, microplate absorbance. The format is biochemical. The following applies: measured on HPLC fraction Fr. B isolated from fermented kelp extract, identified as D-Trp; pH and temperature not given.

For `N[C@H](Cc1c[nH]c2ccccc12)C(=O)O` [D-Trp], the IC50 was found to be 73 µg/mL (≈ 357 µM).

For orientation: IC50 means the concentration needed to halve the response being measured. The low end stands for inhibition by little substance, the high end for a need for much substance.
